Values of other authors as cited in patent publication US6797472B1, “Variation in drug response related to polymorphisms in β2-adrenergic receptor” (Genaissance Pharmaceuticals, Inc., priority 1999, dated 2004).

Key:
[1] = molecular target: T1, Ile164 receptor (Homo sapiens, UniProt P07550, T164I); conditions: competition binding with [125I]cyp in the presence of GTP; reference 4
[2] = molecular target: T1, Ile164 receptor; conditions: previous studies

binding affinity at Ile164 receptor [1]	Structure (SMILES)	stimulation of adenylyl cyclase by Ile164 receptor compared to Thr164 receptor [2]
small decrease in binding affinity	NC[C@H](O)c1ccc(O)c(O)c1 [norepinephrine]	–
normal binding affinities	NCCc1ccc(O)c(O)c1 [dopamine]	does not show decreased stimulation

Structure (SMILES)	binding affinity at Ile164 receptor [1]	stimulation of adenylyl cyclase by Ile164 receptor compared to Thr164 receptor [2]
CNC[C@H](O)c1ccc(O)c(O)c1 [epinephrine]	small decrease in binding affinity	decreased stimulation
